Read-outs that look alike come from different tables or passages of the source.
Key:
[1] = in vivo; set-up: species or system Female NIH-Swiss mice; details: mouse, ip, 394 mg/kg
Description: FIG. 7. Mouse serum concentration of AZT following administration of AZT or AZTDP-DL-PTBA Female NIH-Swiss mice weighing 25-30 g were administered i.p. with AZT (100 mg/kg) or AZTDP-DL-PTBA (394 mg/kg, equivalent to 100 mg/kg AZT). Three mice were sacrificed at the designated time (up to 24 hr) and AZT in the serum was analyzed by a HPLC method.
Female NIH-Swiss mice weighing 25-30 g were administered intraperitoneally (i.p.) with 394 mg/kg of AZTDP-DL-PTBA (equivalent to 100 mg/kg AZT). Three mice were sacrificed at the designated time (up to 24 hours) and AZT in the serum was analyzed by an HPLC method. […] The intact conjugate level in the serum was unable to be checked by the HPLC method.

[2] = Solubility in water; assay type: physicochemical
Description: Solubility of AZTDP-DL-PTBA in water is only 0.58 mM. Thus, the compounds in the present invention were formulated in a micellar solution by sonication for the biological testings such as anti-HIV screenings. The compound was suspended in sterile water and then sonicated using a Branson Sonifier Cell Disruptor 200 at control 2-3 for 5 min (temp 20°-60° C.). The solution was sterile-filtered through a 0.22 μm membrane filter into a sterile receiving container under a laminar flow cabinet. The compound was existed as micelles and the micellar solution was stored in a refrigerator.

[3] = Cytotoxicity to uninfected CEM cells (toxicity control of the anti-HIV assay); assay type: cell-based; details: human
From the text: (§1) FIG. 3. Anti-HIV activity of AZTDP-DL-PTBA from the National Cancer Institute Developmental Therapeutics Program In-Vitro Testing Results; NSC 648540-S/1; Plate 5440; Lab 9N; SSPL:129N; Primary Screen Assay; Test Date, Jan. 21, 1992; Solubility Ind.: 1; Report Date, Apr. 27, 1992; Cell Line, CEM-IW; Solvent: Saline<0.9% (MEDIA).
as §1, with “4.” for “3.”, “AZddUDP-DL-PTBA” for “AZTDP-DL-PTBA”, “NSC: 648541-T/1;” for “NSC 648540-S/1;”, “5466;” for “5440;”, “SSPL: 129N;” for “SSPL:129N;”, “Line:” for “Line,”
(§2) FIG. 5. Anti-HIV activity of ddCDP-DL-PTBA from the National Cancer Institute Developmental Therapeutic Program In-Vitro Testing Results; NSC: D- 652872-A/1; Plate 24; Lab 9N; Primary Screen Assay; Test Date, Jul. 23, 1992; Solubility Ind.: 1; Report Date: Aug. 7, 1992; Cell Line: CEM-IW; Solvent: Saline<0.9% (MEDIA).
(§3) FIG. 6. Anti-HIV activity of AZTDP-DL-PMA from the National Cancer Institute Developmental Therapeutics Program In-Vitro Testing Results; NSC: D- 652873-C/1; Plate 24; Lab 9N; SSPL: 129N; Primary Screen Assay; Test Date, Jul. 23, 1992; Solubility Ind.: 1; Report Date, Sep. 11, 1992; Cell Line: CEM-IW; Solvent: Saline<0.9% (MEDIA).
(§4) The procedure is designed to detect agents acting at any stage of the virus reproductive cycle (Weislow, et al., J. Natl. Cancer Inst. 81, 577, 1989). The assay basically involves the killing of T4 lymphocytes by HIV. Small amounts of HIV are added to cells, and a complete cycle of virus reproduction is necessary to obtain the required cell killing. Agents that interact with virions, cells, or virus gene-products to interfere with viral activities will protect cells from cytolysis. Compounds that degenerate or are rapidly metabolized in the culture conditions may not show activity in this screen. All tests are compared with at least one positive (e.g., AZT-treated) control done at the same time under identical conditions.
(§5) Compound was dissolved in DMSO then diluted 1:100 in cell culture medium before preparing serial half-log10 dilutions. T4 lymphocytes (CEM cell line) were added and after a brief interval HIV-1 was added, resulting in a 1:200 final dilution of the compound. Uninfected cells with the compound served as a toxicity control, and infected and uninfected without the compound served as basic controls. Cultures were incubated at 37° C. in a 5% CO2 atmosphere for 6 days. The tetrazolium salt, XTT, was added to the wells, and cultures were incubated to allow formazan color development by viable cells. Individual wells were analyzed spectrophotometrically to quantitate formazan production, and in addition were viewed microscopically for detection of viable cells and confirmation of protective activity. Drug-treated virus-infected cells were compared with drug-treated noninfected cells and with other appropriate controls (untreated infected and untreated noninfected cells, drug-containing wells without cells, etc.) on the same plate. Data were reviewed in comparison with other tests done at the same time and a determination about activity was made.

[4] = system: HIV-1; test: microbe, parasite or virus in culture; assay type: cell-based
From the text: as §1
as §1, with “4.” for “3.”, “AZddUDP-DL-PTBA” for “AZTDP-DL-PTBA”, “NSC: 648541-T/1;” for “NSC 648540-S/1;”, “5466;” for “5440;”, “SSPL: 129N;” for “SSPL:129N;”, “Line:” for “Line,”
as §2, §3
Anti-HIV evaluation for the compounds was performed at the National Cancer Institute, National Institute of Health and is presented in FIGS. 3-6.
as §4, §5

[5] = system: L1210 lymphoid leukemia; test: In vivo test against i.p. implanted L1210 lymphoid leukemia in DBA/2J mice
Description: AZTDP-DL-PTBA was also tested for in vivo cytotoxicity against i.p. implanted L1210 lymphoid leukemia (10^6 cells) in DBA/2J mice.

Q: Which results are given for `CCCCCCCCCCCCCCCCCCSCC(COP(=O)(O)OP(=O)(O)OC[C@H]1O[C@@H](n2cc(C)c(=O)[nH]c2=O)C[C@@H]1N=[N+]=[N-])OC(=O)CCCCCCCCCCCCCCC` (mixture of isomers) [AZTDP-DL-PTBA]?
A: half-life [1]: 471 min; solubility [2]: 580 µM; MCC ([3]; cem cells, read-out: concentration at which the compound started to show the cytotoxicity): 100 µM; viability at 180 µM ([3]; uninfected cem cells, dose 1.80 × 10^-4 Molar (Tables 1, 2), read-out: UNINFECTED RESPONSE Percent of Control): 0.9%; viability at 18 µM ([3]; uninfected cem cells, dose 1.80 × 10^-5 Molar (Tables 1, 2), read-out: UNINFECTED RESPONSE Percent of Control): 106%; viability at 1.8 µM ([3]; uninfected cem cells, dose 1.80 × 10^-6 Molar (Tables 1, 2), read-out: UNINFECTED RESPONSE Percent of Control): 98.7%; viability at 580 µM ([3]; uninfected cem cells, dose 5.80 × 10^-4 Molar (Tables 1, 2), read-out: UNINFECTED RESPONSE Percent of Control): -0.54%; viability at 58 µM ([3]; uninfected cem cells, dose 5.80 × 10^-5 Molar (Tables 1, 2), read-out: UNINFECTED RESPONSE Percent of Control): 113%; viability at 5.8 µM ([3]; uninfected cem cells, dose 5.80 × 10^-6 Molar (Tables 1, 2), read-out: UNINFECTED RESPONSE Percent of Control): 95.9%; viability at 0.58 µM ([3]; uninfected cem cells, dose 5.80 × 10^-7 Molar (Tables 1, 2), read-out: UNINFECTED RESPONSE Percent of Control): 97%; CC50 ([3]; CEM cells, read-out: cytotoxicity (IC50)): 110 µM; CC50 at 144 h ([3]; uninfected CEM-IW cells, 6 days, XTT, Tables 1-4, read-out: 1C50(Molar) (cytotoxicity)): 110 µM; concentration at which protection was lost ([4]; HIV-infected CEM cells): 180 µM; viability at 0.58 µM ([4]; Human immunodeficiency virus 1, CCRF-CEM, at as low as 5.80×10^-7 M, read-out: protected HIV-infected CEM cells): 80%; viability at 180 µM ([4]; Human immunodeficiency virus 1, CCRF-CEM, dose 1.80 × 10^-4 Molar (Tables 1, 2), read-out: INFECTED RESPONSE Percent of Control): 1.53%; viability at 18 µM ([4]; Human immunodeficiency virus 1, CCRF-CEM, dose 1.80 × 10^-5 Molar (Tables 1, 2), read-out: INFECTED RESPONSE Percent of Control): 110%; viability at 1.8 µM ([4]; Human immunodeficiency virus 1, CCRF-CEM, dose 1.80 × 10^-6 Molar (Tables 1, 2), read-out: INFECTED RESPONSE Percent of Control): 95.6%; viability at 580 µM ([4]; Human immunodeficiency virus 1, CCRF-CEM, dose 5.80 × 10^-4 Molar (Tables 1, 2), read-out: INFECTED RESPONSE Percent of Control): 0.57%; viability at 58 µM ([4]; Human immunodeficiency virus 1, CCRF-CEM, dose 5.80 × 10^-5 Molar (Tables 1, 2), read-out: INFECTED RESPONSE Percent of Control): 122%; viability at 5.8 µM ([4]; Human immunodeficiency virus 1, CCRF-CEM, dose 5.80 × 10^-6 Molar (Tables 1, 2), read-out: INFECTED RESPONSE Percent of Control): 98.1%; viability at 0.58 µM ([4]; Human immunodeficiency virus 1, CCRF-CEM, dose 5.80 × 10^-7 Molar (Tables 1, 2), read-out: INFECTED RESPONSE Percent of Control): 81.6%; Conclusion ([4]; NCI screen conclusion, Tables 1-4): CONFIRMED ACTIVE; conclusion / reported as anti-HIV drug ([4]; NCI screening results): active; in vitro anti-HIV activity ([4]; result in words): strong in vitro anti-HIV activity; % ILS (increase in life span) ([5]; 100-300 mg (95-285 μmole)/kg, L1210 10^6 cells i.p.): 0%; Toxicity ([5]; 100-300 mg/kg, leukemic mice): Toxicity as reflected in weight loss was observed

From US5484911A, “Nucleoside 5'-diphosphate conjugates of ether lipids” (Health Research, Inc., priority 1993, dated 1996)
